Data set [1] concerns the target T1, CXCR4 (Homo sapiens, UniProt P61073). Put plainly: Inhibition of intracellular calcium mobilization (SupT1 cells, SDF-1α, Fluo-4). Type of data set: cell-based. Particulars: 50 nM SDF-1α. The procedure:
3. Experimental method: the cell line used in this assay was SupT1. Prior to the experiment, the cells were collected and washed with an experimental buffer (an HBSS buffer containing 20 mM HEPES), and then incubated with a buffer containing 4 μM Fluo-4 and 1 mM probenecid sodium for 30 min at 37° C., after which the residual dye was washed away, and the cells were suspended to a concentration of 2×10^6 cells/ml. Afterwards, 200 μl of the cell suspension was taken and added to a black 96-well plate, and absorption values of the cells at 494 nmEX/516 nmEM were recorded. Subsequently, different concentrations of compound were added and mixed uniformly, and the baseline was recorded. Thereafter, 50 nM of the SDF-1α was added and mixed uniformly. Signals of calcium ions were recorded, and the differences in fluorescence intensity between a group without addition of the compound and groups added with different concentrations of the compound were observed. 4.
On the technique in general: Calcium assays in cells follow changes in intracellular calcium, usually with a dye or a luminescent sensor.

Data set [2] addresses T1, CXCR4. Put plainly: Binding affinity assay on CXCR4 receptor protein (inhibition of 12G5 monoclonal antibody binding, CHO cells stably transfected with CXCR4). Details: expressed in transfected cells; host or cells: CHO cells, stably transfected (G418 selection). The note with it: 40 min; 0.1 μM compound; inhibition of 12G5 antibody binding to CXCR4 on CHO-CXCR4 cells; read-out: Inhibition ratio interval of compounds at 0.1 μM. The procedure: 3. Experimental method: the cell line used for the affinity activity assay of the CXCR4 was a CHO cell line constructed in vitro and stably transfected with CXCR4. The CHO cell line cultured in DMEM medium (containing 10% fetal bovine serum, 100 IU penicillin, 0.1 mg/ml streptomycin and 0.2 mg/ml G418) was trypsinized, washed, counted, and then suspended in an FACS buffer (PBS containing 0.5% BSA and 0.05% NaN3), followed by being plated in a 96-well plate. Each cell contains 100 μl of the reaction system, which includes 5×10^5 cells, 250 ng/ml 12G5 monoclonal antibody and different concentrations of compound for detection. After incubated on ice for 40 min and washed with the FACS buffer, the reaction system was added with the secondary antibody (anti-mouse FITC-labeled IgG) for further incubation on ice for 30 min and then washed twice with the FACS buffer. Absorption values at 485 nmEX/535 nmEM were measured on a microplate reader (PerkinElmer), and fluorescence intensities were recorded. For each compound, a percentage of the compound that inhibits the binding of the 12G5 monoclonal antibody to the receptor CXCR4, i.e. a binding inhibition ratio at 0.1 μM, was calculated. 4. […] The inhibition ratio of the compounds is divided into the following intervals: 75% to 100% for A, 50% to 74% for B, 25% to 49% for C, and 0 to 24% for D.

Data set [3] is described as follows: Cytotoxicity assay (CellTiter 96, 72 h). Type of data set: cell-based. Particulars: human; HEK293 cells, 72 hours incubation. The procedure:
1. Experimental method: the experiment was carried out using HEK293 cell line. The HEK293 cells cultured in DMEM medium (containing 10% fetal bovine serum, 100 IU penicillin and 0.1 mg/ml streptomycin) were trypsinized, counted, and plated in a 96-well plate with each well containing 100 μl suspension and including 3×10^3 cells in total. After culturation in a constant-temperature incubator containing 5% CO2 at 37° C. overnight, different concentrations of the compound were added. After 72 hours of incubation in total, 20 μl CellTiter 96 was added to further incubate for 1 to 4 hours, and then an absorption value at 490 nm was measured on a microplate reader. The changes in cell viability prior to and subsequent to the addition of the compound were observed by comparing the values of the blank control group and the experimental group. 2.

Data set [4] addresses T1, CXCR4. Put plainly: Inhibition of CXCR4 induced cell migration (SupT1 cells, SDF-1α, transwell). The note with it: 2 nM SDF-1α, concentration-dependent, FIG. 1. Type of data set: cell-based. The procedure:
1. Experimental method: the assay on the CXCR4 induced cell migration was detected using SupT1 cell line which naturally expresses the CXCR4. SupT1 cells cultured and suspended in RPMI 1640 (containing 10% fetal bovine serum, 100 IU penicillin and 0.1 mg/ml streptomycin) were collected and then washed with RPMI 1640 containing 0.5% BSA, after which the cells are counted and suspended to a concentration of 3.0×10^7 cells/ml, and then uniformly mixed with different concentrations of compound. Then, 75 μl of the obtained mixture was taken and added to a tranwell insert, and incubated at 37° C. for 30 min. […] After incubation at 37° C. for 3 hours, the tranwell insert was removed, and 40 μl of CellTiter 96 (Promega) was added to each cell of the lower culture plate. After 1 to 4 hours of incubation, absorption values at 490 nm were detected. The experimental results of each group were obtained by at least three independent experiments, and the inhibition curve was plotted by the GraphPad software. 2.

SMILES strings stand for the structures.

T1 sequence (P61073 whole entry): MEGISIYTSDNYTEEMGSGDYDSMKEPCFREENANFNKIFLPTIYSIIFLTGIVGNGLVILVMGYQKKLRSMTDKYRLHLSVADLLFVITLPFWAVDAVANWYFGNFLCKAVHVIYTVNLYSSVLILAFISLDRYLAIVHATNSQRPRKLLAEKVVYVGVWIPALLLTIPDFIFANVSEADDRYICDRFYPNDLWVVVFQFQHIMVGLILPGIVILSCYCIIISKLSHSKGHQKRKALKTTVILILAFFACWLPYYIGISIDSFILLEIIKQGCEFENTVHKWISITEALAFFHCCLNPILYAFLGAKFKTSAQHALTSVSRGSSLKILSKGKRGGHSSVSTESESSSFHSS

As for `c1cc(CN2CCCNCCNCCCNCC2)ccc1CN1CCCNCCNCCCNCC1` [AMD3100, plerixafor, reference compound], the “Inhibition of signal of calcium mobilization” value on CXCR4 [1] (compound at 1.0 μM, FIG. 3) is given as “fails to inhibit”.
For the compound `N=C(N)NCCC[C@H](NCc1ccccn1)C(=O)NCc1ccc(CNCCCNC2CCCCC2)cc1` [Compound 1], the inhibition at 0.1 µM at CXCR4 [2] fell in the range of 75 to 100%. In data set [3], this compound came in with an IC50 at 72 h of over 50 µM. Further, the “Inhibition of signal of calcium mobilization” value at CXCR4 [1] (compound at 0.2 μM, FIG. 2) is “completely inhibit”. Besides, the “Inhibition of CXCR4 induced cell migration” value on CXCR4 [4] is “significant inhibiting ability”.
In the case of `N=C(N)NCCC[C@H](NC(=O)c1ccc(F)cc1)C(=O)NCc1ccc(CNCCCNC2CCCCC2)cc1` [Compound 2], the inhibition at 0.1 µM on CXCR4 [2] lay within 50 to 74%. This compound also gave an IC50 at 72 h in data set [3] of over 50 µM.
In the case of `N=C(N)NCCC[C@H](NCc1ccccn1)C(=O)NCc1ccccc1` [Compound 3], the inhibition at 0.1 µM on CXCR4 [2] is 0 to 24%.
On to `N=C(N)NCCC[C@H](NCc1ccccn1)C(=O)NCc1ccc(CNC2CCCCC2)cc1` [Compound 4], for which, on CXCR4 [2], the inhibition at 0.1 µM fell in the range of 0 to 24%. Further, the IC50 at 72 h in data set [3] is over 50 µM.
For `N=C(N)NCCC[C@H](N)C(=O)NCc1ccc(CNCCCNC2CCCCC2)cc1` [Compound 5], on CXCR4 [2], the inhibition at 0.1 µM was in the range of 25 to 49%. For the same compound, the half-maximal inhibitory concentration (IC50) at 72 h in data set [3] is over 50 µM.
For `N=C(N)NCCC[C@@H](NCc1ccccn1)C(=O)NCc1ccc(CNCCCNC2CCCCC2)cc1` [Compound 6] the same measures were 50 to 74% and over 50 µM.
Turning to `N=C(N)NCCC[C@H](NC(=O)C1CCC(F)(F)CC1)C(=O)NCc1ccc(CNCCCNC2CCCCC2)cc1` [Compound 7], at CXCR4 [2], the inhibition at 0.1 µM fell in the range of 50 to 74%. In data set [3], the IC50 at 72 h is over 50 µM.
Turning to `N=C(N)NCCC[C@H](NCc1ccc(F)cc1)C(=O)NCc1ccc(CNCCCNC2CCCCC2)cc1` [Compound 8], the inhibition at 0.1 µM on CXCR4 [2] is 50 to 74%. Further, the IC50 at 72 h in data set [3] was over 50 µM.
As to `CN(C)c1ccc(CN[C@@H](CCCNC(=N)N)C(=O)NCc2ccc(CNCCCNC3CCCCC3)cc2)cc1` [Compound 9], the inhibition at 0.1 µM on CXCR4 [2] lay in the range of 75 to 100%. Further, the IC50 at 72 h in data set [3] was over 50 µM.
The like results for `N=C(N)NCCC[C@H](NCc1cccc2ccccc12)C(=O)NCc1ccc(CNCCCNC2CCCCC2)cc1` [Compound 10] were, in that order, 50 to 74% and over 50 µM.
With `N=C(N)NCCC[C@H](NCc1ccc(-c2ccccc2)cc1)C(=O)NCc1ccc(CNCCCNC2CCCCC2)cc1` [Compound 11], the inhibition at 0.1 µM on CXCR4 [2] lay within 50 to 74%. For the same compound, in data set [3], the IC50 at 72 h is over 50 µM.
The like results for `N=C(N)NCCC[C@H](NCc1cc(C(F)(F)F)cc(C(F)(F)F)c1)C(=O)NCc1ccc(CNCCCNC2CCCCC2)cc1` [Compound 12] were, in that order, 0 to 24% and over 50 µM.
For `N=C(N)NCCC[C@H](NCc1ncc[nH]1)C(=O)NCc1ccc(CNCCCNC2CCCCC2)cc1` [Compound 13] the same measures were 50 to 74% and over 50 µM.
Regarding `N=C(N)NCCC[C@H](NC1CCCc2cccnc21)C(=O)NCc1ccc(CNCCCNC2CCCCC2)cc1` (some centres unmarked) [Compound 14], the inhibition at 0.1 µM at CXCR4 [2] is 0 to 24%.
In the case of `N=C(N)NCCC[C@H](NC1CCCCC1)C(=O)NCc1ccc(CNCCCNC2CCCCC2)cc1` [Compound 15], on CXCR4 [2], the inhibition at 0.1 µM lay in the range of 50 to 74%. Moreover, the half-maximal inhibitory concentration (IC50) at 72 h in data set [3] is over 20 µM.
For `N=C(N)NCCC[C@H](NCC1CCCCC1)C(=O)NCc1ccc(CNCCCNC2CCCCC2)cc1` [Compound 16] the same measures were 75 to 100% and over 50 µM.
For `NCCCC[C@H](NCc1ccccn1)C(=O)NCc1ccc(CNCCCNC2CCCCC2)cc1` [Compound 17] the same measures were 75 to 100% and over 50 µM.
For `CC(C)NCCCC[C@H](NCc1ccccn1)C(=O)NCc1ccc(CNCCCNC2CCCCC2)cc1` [Compound 18] the same measures were 75 to 100% and over 50 µM.
With `O=C(NCc1ccc(CNCCCNC2CCCCC2)cc1)[C@H](CCCCNC1CCCCC1)NCc1ccccn1` [Compound 19], the inhibition at 0.1 µM on CXCR4 [2] fell in the range of 75 to 100%. Also, the IC50 at 72 h in data set [3] was over 50 µM.
The like results for `O=C(NCc1ccc(CNCCCNC2CCCCC2)cc1)[C@H](CCCNC1CCCCC1)NCc1ccccn1` [Compound 20] were, in that order, 50 to 74% and over 50 µM.
For `O=C(NCc1ccc(CNCCCNC2CCCCC2)cc1)[C@H](Cc1c[nH]cn1)NCc1ccccn1` [Compound 21] the same measures were 75 to 100% and over 50 µM.
The like results for `O=C(O)C[C@H](NCc1ccccn1)C(=O)NCc1ccc(CNCCCNC2CCCCC2)cc1` [Compound 22] were, in that order, 50 to 74% and over 50 µM.
Turning to `C[C@H](NCc1ccccn1)C(=O)NCc1ccc(CNCCCNC2CCCCC2)cc1` [Compound 23], on CXCR4 [2], the inhibition at 0.1 µM was 75 to 100%. In data set [3], this compound had an IC50 at 72 h of over 50 µM.
For `O=C(NCc1ccc(CNCCCNC2CCCCC2)cc1)[C@H](CO)NCc1ccccn1` [Compound 24] the same measures were 75 to 100% and over 50 µM.
The like results for `O=C(NCc1ccc(CNCCCNC2CCCCC2)cc1)[C@H](Cc1ccc2ccccc2c1)NCc1ccccn1` [Compound 25] were, in that order, 50 to 74% and over 10 µM.
As to `O=C(NCc1ccc(CNCCCNC2CCCCC2)cc1)[C@H](Cc1c[nH]c2ccccc12)NCc1ccccn1` [Compound 26], at CXCR4 [2], the inhibition at 0.1 µM is 75 to 100%. In data set [3], this compound yielded an IC50 at 72 h of over 50 µM.
Turning to `O=C(NCc1ccc(CNCCCNC2CCCCC2)cc1)[C@H](Cc1ccc(O)cc1)NCc1ccccn1` [Compound 27], the inhibition at 0.1 µM at CXCR4 [2] was 50 to 74%. The same compound registered an IC50 at 72 h in data set [3] of over 50 µM.
The like results for `CC(C)C[C@H](NCc1ccccn1)C(=O)NCc1ccc(CNCCCNC2CCCCC2)cc1` [Compound 28] were, in that order, 25 to 49% and over 50 µM.
With `O=C(NCc1ccc(CNCCCNC2CCCCC2)cc1)[C@@H]1CCCN1Cc1ccccn1` [Compound 29], the inhibition at 0.1 µM at CXCR4 [2] lay within 75 to 100%. In addition, the IC50 at 72 h in data set [3] was over 50 µM.
As for `O=C(NCc1ccc(CNCCCNC2CCCCC2)cc1)[C@@H]1Cc2ccccc2CN1Cc1ccccn1` [Compound 30], on CXCR4 [2], the inhibition at 0.1 µM was in the range of 75 to 100%. Moreover, the IC50 at 72 h in data set [3] was over 20 µM.
For `N=C(N)NCCC[C@H](NC(=O)[C@@H](N)Cc1ccc(O)cc1)C(=O)NCc1ccc(CNCCCNC2CCCCC2)cc1` [Compound 31] the same measures were 75 to 100% and over 50 µM.
In the case of `N=C(N)NCCC[C@H](N)C(=O)N[C@@H](Cc1ccc2ccccc2c1)C(=O)NCc1ccc(CNCCCNC2CCCCC2)cc1` [Compound 32], the inhibition at 0.1 µM on CXCR4 [2] is 75 to 100%. The compound also showed an IC50 at 72 h in data set [3] of over 50 µM.

A word on the IC50: it is the concentration that gives 50% inhibition. A high value points to a need for much substance.

These data come from patent US11400083B2, “CXCR4 antagonists with amino acid skeleton, preparation therefor and biomedical use thereof” (Tsinghua University, priority 2017, dated 2022).
